Assay results taken from patent US11453690B2, “Receptor inhibitor, pharmaceutical composition comprising same, and use thereof” (BEIJING TIDE PHARMACEUTICAL CO., LTD., priority 2018, dated 2022).

Columns and labels:
AT2 Receptor (AT2R) = AT2 Receptor (AT2R) (Homo sapiens (Human), UniProt P50052); assay: Measurement of inhibitory activity on AT2 receptor (Tag-lite HTRF, Tb-labeled AT2R cells, angiotensin receptor red agonist); format: binding; settings: 1 h room temperature
AT1 Receptor (AT1R) = AT1 Receptor (AT1R) (Homo sapiens (Human), UniProt P30556); assay: Measurement of inhibitory activity on AT1 receptor (Tag-lite HTRF, Tb-labeled AT1R cells, angiotensin receptor red agonist); format: binding; settings: 1 h room temperature
Method: Measurement of Inhibitory Activity on AT1 Receptor ([…])/AT2 Receptor (AT2R)
Through the following steps, the inhibitory activity of the compound on AT1R/AT2R (IC50 value) was determined:
1) An appropriate amount of 1×TLB (Tag-lite Buffer) was prepared and well mixed for use.
2) The compound was diluted by 10 times with ddH2O or DMSO. The compound was then dilute to 4 times of the working concentration with 1×TLB and mixed well for use.
3) 8600 nM Tag-lite angiotensin receptor red agonist was diluted to 12 nM (4×Kd) with 1×TLB.
4) 5 ml 1×TLB was taken into a 15 ml centrifuge tube.
5) After thawing 1 tube of Tb-labeled AT1R/AT2R cells in a 37° C. water bath, the cells were quickly transferred to the 1×TLB in step 4), mixed gently, and centrifuged at 1200 g for 5 minutes at room temperature.
6) The supernatant was aspirated gently, and the cells were resuspended and mixed in 2.7 ml 1×TLB, and then placed at room temperature until use.
7) 10 μl cells were added to all test wells, and 5 μl 4× working solution of the compound from step 2) was added to the corresponding test wells. 5 μl 4× Tag-lite angiotensin receptor red agonist well diluted in step 3) was added to all test wells.
8) After leaving the reaction plate at room temperature for 1 h, data were measured and analyzed using Envision HTRF Reader, and the half inhibitory concentration (IC50) of the compound on AT1R/AT2R was calculated with the GraphPad Prism four-parameter equation.

AT1 Receptor (AT1R), sequence (P30556 whole entry): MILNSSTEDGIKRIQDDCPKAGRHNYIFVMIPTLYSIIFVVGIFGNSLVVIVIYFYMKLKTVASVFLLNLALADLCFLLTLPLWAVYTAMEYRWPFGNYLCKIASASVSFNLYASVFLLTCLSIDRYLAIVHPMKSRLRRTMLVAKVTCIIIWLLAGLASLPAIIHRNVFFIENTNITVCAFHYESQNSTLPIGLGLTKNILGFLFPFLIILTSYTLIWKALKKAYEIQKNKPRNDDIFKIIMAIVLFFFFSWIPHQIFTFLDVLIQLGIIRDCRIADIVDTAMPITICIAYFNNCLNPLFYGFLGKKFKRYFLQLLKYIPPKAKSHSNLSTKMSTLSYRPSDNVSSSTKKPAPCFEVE
AT2 Receptor (AT2R), sequence (P50052 whole entry): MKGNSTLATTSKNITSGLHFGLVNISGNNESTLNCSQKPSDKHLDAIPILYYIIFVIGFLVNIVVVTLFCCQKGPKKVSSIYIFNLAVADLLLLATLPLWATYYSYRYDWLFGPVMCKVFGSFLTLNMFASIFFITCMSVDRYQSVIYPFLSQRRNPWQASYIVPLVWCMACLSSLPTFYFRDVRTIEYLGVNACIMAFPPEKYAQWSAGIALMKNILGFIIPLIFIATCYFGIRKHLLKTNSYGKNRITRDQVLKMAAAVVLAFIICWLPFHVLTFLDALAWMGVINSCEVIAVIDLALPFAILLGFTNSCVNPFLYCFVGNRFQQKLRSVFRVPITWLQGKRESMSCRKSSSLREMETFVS

`O=C(O)[C@@H]1C2CCC(CC2OCc2ccccc2)N1C(=O)C(c1ccccc1)c1ccccc1` (stereo in doubt) [Compound C283, (1S,3S,4S)-5-(benzyloxy)-2-(2,2-diphenylacetyl)-2-azabicyclo[2.2.2]octane-3-carboxylic acid] gave an IC50 (AT2 Receptor (AT2R)) of 46.3 nM and an IC50 (AT1 Receptor (AT1R)) greater than 10000 nM.

Work on `O=C(O)[C@@H]1[C@H]2CC[C@@H](CN1C(=O)C(c1ccccc1)c1ccccc1)N2C(=O)C(c1ccccc1)c1ccccc1` [Compound C1, (1R,2S,5S)-3,8-bis(2,2-diphenylacetyl)-3,8-diazabicyclo[3.2.1]octane-2-carboxylic acid] yielded an IC50 (AT2 Receptor (AT2R)) of 6.67 nM and an IC50 (AT1 Receptor (AT1R)) greater than 10000 nM.

For `O=C(O)[C@@H]1[C@H]2CC[C@@H](CN1C(=O)N(c1ccccc1)c1ccccc1)N2C(=O)N(c1ccccc1)c1ccccc1` [Compound C5, (1R,2S,5S)-3,8-bis (diphenylcarbamoyl)-3,8-diazabicyclo [3.2.1]octane-2-carboxylic acid], the IC50 (AT2 Receptor (AT2R)) was 15.3 nM and the IC50 (AT1 Receptor (AT1R)) was greater than 10000 nM.

In the case of `O=C(O)[C@@H]1[C@H]2CC[C@@H](CN1C(=O)N1c3ccccc3C=Cc3ccccc31)N2C(=O)C(c1ccccc1)c1ccccc1` [Compound C10, (1R,2S,5S)-3-(5H-dibenzo[b,f]azepine-5-carbonyl)-8-(2,2-diphenylacetyl)-3,8-diazabicyclo [3.2.1]octane-2-carboxylic acid], the IC50 (AT2 Receptor (AT2R)) is reported as 58.8 nM and the IC50 (AT1 Receptor (AT1R)) is reported as greater than 10000 nM.

`O=C(O)[C@@H]1[C@H]2CC[C@@H](CN1C(=O)N(c1ccccc1)c1ccccc1)N2C(=O)C(c1ccccc1)c1ccccc1` [Compound C12, (1R,2S,5S)-8-(2,2-diphenylacetyl)-3-(diphenylcarbamoyl)-3,8-diazabicyclo [3.2.1]octane-2-carboxylic acid] was tested, and the IC50 (AT2 Receptor (AT2R)) was 17.1 nM and the IC50 (AT1 Receptor (AT1R)) was greater than 10000 nM.

`O=C(O)[C@H]1[C@@H]2CC[C@H](CN1C(=O)N(c1ccccc1)c1ccccc1)N2C(=O)N(c1ccccc1)c1ccccc1` [Compound C14, (1S,2R,5R)-3,8-bis (diphenylcarbamoyl)-3,8-diazabicyclo [3.2.1]octane-2-carboxylic acid] showed an IC50 (AT2 Receptor (AT2R)) of 29.4 nM and an IC50 (AT1 Receptor (AT1R)) greater than 10000 nM.

With `O=C(O)[C@@H]1[C@H]2CC[C@@H](CN1C(=O)C(c1ccccc1)c1ccccc1)N2C(=O)OCc1ccccc1` [Compound C34, (1R,2S,5S)-8-((benzyloxy)carbonyl)-3-(2,2-diphenylacetyl)-3,8-diazabicyclo[3.2.1]octane-2-carboxylic acid] the IC50 (AT2 Receptor (AT2R)) was 35.2 nM and the IC50 (AT1 Receptor (AT1R)) was greater than 10000 nM.

`O=C(O)[C@@H]1[C@H]2CC[C@@H](CN1C(=O)N(c1ccccc1)c1ccccc1)N2C(=O)OCc1ccccc1` [Compound C37, (1R,2S,5S)-8-((benzyloxy)carbonyl)-3-(diphenylcarbamoyl)-3,8-diazabicyclo [3.2.1]octane-2-carboxylic acid] showed an IC50 (AT2 Receptor (AT2R)) of 55.3 nM and an IC50 (AT1 Receptor (AT1R)) greater than 10000 nM.

With `O=C(O)[C@H]1[C@@H]2CC[C@H](CN1C(=O)N1c3ccccc3C=Cc3ccccc31)N2C(=O)C(c1ccccc1)c1ccccc1` [Compound C71, (1S,2R,5R)-3-(5H-dibenzo[bf]azepine-5-carbonyl)-8-(2,2-diphenylacetyl)-3,8-diazabicyclo[3. 2.1]octane-2-carboxylic acid] the IC50 (AT2 Receptor (AT2R)) was 50.4 nM and the IC50 (AT1 Receptor (AT1R)) was greater than 10000 nM.

For `O=C(O)[C@@H]1[C@H]2CC[C@@H](CN1C(=O)C(c1ccccc1)c1ccccc1)N2C(=O)NCc1ccccc1` [Compound C78, (1R,2S,5S)-8-(benzylcarbamoyl)-3-(2,2-diphenylacetyl)-3,8-diazabicyclo[3. 2.1]octane-2-carboxylic acid], the IC50 (AT2 Receptor (AT2R)) was 55 nM and the IC50 (AT1 Receptor (AT1R)) was greater than 10000 nM.

In the case of `O=C(O)[C@@H]1[C@H]2CC[C@@H](CN1C(=O)C(c1ccccc1)c1ccccc1)N2C(=O)Oc1ccccc1` [Compound C79, (1R,2S,5S)-3-(2,2-diphenylacetyl)-8-(phenoxycarbonyl)-3,8-diazabicyclo[3.2.1]octane-2-carboxylic acid], the IC50 (AT2 Receptor (AT2R)) is reported as 24.6 nM and the IC50 (AT1 Receptor (AT1R)) is reported as greater than 10000 nM.

`CN(Cc1ccccc1)C(=O)N1[C@H]2CC[C@@H]1[C@@H](C(=O)O)N(C(=O)C(c1ccccc1)c1ccccc1)C2` [Compound C82, (1R,2S,5S)-8-(benzyl(methyl)carbamoyl)-3-(2,2-diphenylacetyl)-3,8-diazabicyclo[3.2.1]octane-2-carboxylic acid] showed an IC50 (AT2 Receptor (AT2R)) of 3.98 nM and an IC50 (AT1 Receptor (AT1R)) greater than 10000 nM.

For `O=C(O)[C@@H]1[C@H]2CC[C@@H](CN1C(=O)C(c1ccccc1)c1ccccc1)N2C(=O)Nc1ccccc1` [Compound C83, (1R,2S,5S)-3-(2,2-diphenylacetyl)-8-(phenylcarbamoyl)-3,8-diazabicyclo [3.2.1]octane-2-carboxylic acid], the IC50 (AT2 Receptor (AT2R)) was 18.1 nM and the IC50 (AT1 Receptor (AT1R)) was greater than 10000 nM.

`CN(Cc1ccccc1)C(=O)N1[C@H]2CC[C@@H]1[C@@H](C(=O)O)N(C(=O)N(c1ccccc1)c1ccccc1)C2` [Compound C112, (1R,2S,5S)-8-(benzyl(methyl)carbamoyl)-3-(diphenylcarbamoyl)-3,8-diazabicyclo [3.2.1]octane-2-carboxylic acid] gave an IC50 (AT2 Receptor (AT2R)) of 21.5 nM and an IC50 (AT1 Receptor (AT1R)) greater than 10000 nM.

`CN(Cc1ccccn1)C(=O)N1[C@H]2CC[C@@H]1[C@@H](C(=O)O)N(C(=O)C(c1ccccc1)c1ccccc1)C2` [Compound C123, (1R,2S,5S)-3-(2,2-diphenylacetyl)-8-(methyl(pyridine-2-ylmethyl)carbamoyl)-3,8-diazabicyclo [3.2.1]octane-2-carboxylic acid] showed an IC50 (AT2 Receptor (AT2R)) of 11.7 nM and an IC50 (AT1 Receptor (AT1R)) greater than 10000 nM.

`CN(Cc1ccccc1Cl)C(=O)N1[C@H]2CC[C@@H]1[C@@H](C(=O)O)N(C(=O)N(c1ccccc1)c1ccccc1)C2` [Compound C149, (1R,2S,5S)-8-((2-chlorobenzyl) (methyl)carbamoyl)-3-(diphenylcarbamoyl)-3,8-diazabicyclo [3.2.1]octane-2-carboxylic acid] was tested, and the IC50 (AT2 Receptor (AT2R)) was 16.6 nM and the IC50 (AT1 Receptor (AT1R)) was greater than 10000 nM.

Work on `CN(Cc1ccc(Cl)cc1)C(=O)N1[C@H]2CC[C@@H]1[C@@H](C(=O)O)N(C(=O)N(c1ccccc1)c1ccccc1)C2` [Compound C150, (1R,2S,5S)-8-((4-chlorobenzyl) (methyl)carbamoyl)-3-(diphenylcarbamoyl)-3,8-diazabicyclo [3.2.1]octane-2-carboxylic acid] yielded an IC50 (AT2 Receptor (AT2R)) of 9.82 nM and an IC50 (AT1 Receptor (AT1R)) greater than 10000 nM.

Work on `CCN(Cc1ccccc1)C(=O)N1[C@H]2CC[C@@H]1[C@@H](C(=O)O)N(C(=O)N(c1ccccc1)c1ccccc1)C2` [Compound C155, (1R,2S,5S)-8-(benzyl (ethyl)carbamoyl)-3-(diphenylcarbamoyl)-3,8-diazabicyclo [3.2.1]octane-2-carboxylic acid] yielded an IC50 (AT2 Receptor (AT2R)) of 9.03 nM and an IC50 (AT1 Receptor (AT1R)) greater than 10000 nM.

With `CC(C(=O)N1C[C@@H]2CC[C@H]([C@H]1C(=O)O)N2C(=O)OCc1ccccc1)(c1ccccc1)c1ccccc1` [Compound C157] the IC50 (AT2 Receptor (AT2R)) was 27.1 nM and the IC50 (AT1 Receptor (AT1R)) was greater than 10000 nM.

`Cc1ccc(CN(C)C(=O)N2[C@H]3CC[C@@H]2[C@@H](C(=O)O)N(C(=O)N(c2ccccc2)c2ccccc2)C3)cc1` [Compound C162, (1R,2S,5S)-3-(diphenylcarbamoyl)-8-(methyl(4-methylbenzyl)carbamoyl)-3,8-diazabicyclo [3.2.1]octane-2-carboxylic acid] was tested, and the IC50 (AT2 Receptor (AT2R)) was 4.04 nM and the IC50 (AT1 Receptor (AT1R)) was greater than 10000 nM.

`COc1ccc(CN(C)C(=O)N2[C@H]3CC[C@@H]2[C@@H](C(=O)O)N(C(=O)N(c2ccccc2)c2ccccc2)C3)cc1` [Compound C166] gave an IC50 (AT2 Receptor (AT2R)) of 4.42 nM and an IC50 (AT1 Receptor (AT1R)) greater than 10000 nM.

In the case of `CN(Cc1ccc(C#N)cc1)C(=O)N1[C@H]2CC[C@@H]1[C@H](C(=O)O)N(C(=O)N(c1ccccc1)c1ccccc1)C2` [Compound C167, (1R,2R,5S)-8-((4-cyanobenzyl) (methyl)carbamoyl)-3-(diphenylcarbamoyl)-3,8-diazabicyclo [3.2.1]octane-2-carboxylic acid], the IC50 (AT2 Receptor (AT2R)) is reported as 18.9 nM and the IC50 (AT1 Receptor (AT1R)) is reported as greater than 10000 nM.
